Measured values: ChEMBL document CHEMBL5331089, “Mucormycosis: A hidden mystery of fungal infection, possible diagnosis, treatment and development of new therapeutic agents” (Eur J Med Chem, 2023)
Converted amounts (≈) assume the structure as drawn.

Assays:
[1] = system: Rhizopus arrhizus; assay: Antifungal activity against Rhizopus oryzae assessed as fungal growth inhibition at 12.5 ug/ml measured after 24 hrs by microtiter plate assay relative to control; format: functional
[2] = system: Mucor circinelloides; assay: Antifungal activity against Mucor circinelloides assessed as fungal growth inhibition at 100 ug/ml measured after 24 hrs by microtiter plate assay relative to control; format: functional
[3] = system: Phycomyces blakesleeanus; assay: Antifungal activity against Phycomyces blakesleeanus assessed as fungal growth inhibition at 6.26 ug/ml measured after 24 hrs by microtiter plate assay relative to control; format: functional
[4] = system: Syncephalastrum racemosum; assay: Antifungal activity against Syncephalastrum racemosum RCMB 016001 assessed as zone of inhibition measured after 24 hrs; format: functional
[5] = system: Syncephalastrum racemosum; assay: Antifungal activity against Syncephalastrum racemosum assessed as fungal growth inhibition measured for 24 to 24 hrs by agar well diffusion assay; format: functional, organism-based; conditions: for MIC: time 24-24 hrs
[6] = system: Rhizomucor miehei; assay: Antifungal activity against Rhizomucor miehei CBS 360.92 assessed as fungal growth inhibition measured after 48 hrs by microtitre plate reader assay; format: functional
[7] = system: Rhizomucor pusillus; assay: Antifungal activity against Rhizomucor pusillus clinical isolate assessed as fungal growth inhibition measured after 48 hrs by microtitre plate reader analysis; format: functional
[8] = system: Mucor racemosus; assay: Antifungal activity against Mucor racemosus WRL CN(M)304 assessed as fungal growth inhibition; format: functional
[9] = Antifungal activity against Rhizopus microsporus NRRL 514 assessed as fungal growth inhibition measured after 48 hrs by microtitre plate reader assay; format: functional
[10] = system: Mucor mucedo; assay: Antifungal activity against Mucor mucedo WRL CN(M) assessed as fungal growth inhibition; format: functional
[11] = system: Rhizopus arrhizus; assay: Antifungal activity against Rhizopus oryzae clinical isolate assessed as fungal growth inhibition measured after 24 to 72 hrs by microtitre plate reader analysis; format: functional; conditions: time 24-72 hrs
[12] = system: Rhizopus arrhizus; assay: Antifungal activity against Rhizopus oryzae clinical isolate assessed as fungal growth inhibition by checkerboard broth microdilution assay; format: functional
[13] = system: Rhizopus arrhizus; assay: Antifungal activity against Rhizopus oryzae CBS 146.90 assessed as fungal growth inhibition; format: functional
[14] = system: Absidia glauca; assay: Antifungal activity against Absidia glauca SZMC 11072 assessed as fungal growth inhibition; format: functional
[15] = system: Mucor circinelloides; assay: Antifungal activity against Mucor circinelloides MS 12 assessed as fungal growth inhibition; format: functional
[16] = system: Rhizomucor miehei; assay: Antifungal activity against Rhizomucor miehei CBS 360.92 assessed as fungal growth inhibition; format: functional
[17] = system: Lichtheimia corymbifera; assay: Antifungal activity against Absidia corymbifera SZMC 2010 assessed as fungal growth inhibition measured after 48 hrs by microtitre plate reader assay; format: functional
[18] = system: Syncephalastrum racemosum; assay: Antifungal activity against Syncephalastrum racemosum SZMC 2011 assessed as fungal growth inhibition measured after 48 hrs by microtitre plate reader assay; format: functional
[19] = system: Rhizopus arrhizus; assay: Antifungal activity against Rhizopus oryzae CBS 109939 assessed as fungal growth inhibition by checkerboard broth microdilution assay; format: functional
[20] = system: Rhizomucor pusillus; assay: Antifungal activity against Rhizomucor pusillus ETH M4920 assessed as fungal growth inhibition; format: functional
[21] = system: Rhizopus arrhizus; assay: Antifungal activity against Rhizopus oryzae CBS 112.07 assessed as fungal growth inhibition measured after 48 hrs by microtitre plate reader assay; format: functional
[22] = system: Rhizomucor pusillus; assay: Antifungal activity against Rhizomucor pusillus CN(M)231 assessed as fungal growth inhibition measured after 48 hrs by microtitre plate reader assay; format: functional
[23] = system: Rhizomucor pusillus; assay: Antifungal activity against Rhizomucor pusillus assessed as fungal growth inhibition measured at 36 to 48 hrs; format: functional; conditions: time 36-48 hrs
[24] = system: Mucor circinelloides; assay: Antifungal activity against Mucor circinelloides assessed as fungal growth inhibition measured at 36 to 48 hrs; format: functional; conditions: time 36-48 hrs
[25] = system: Syncephalastrum racemosum; assay: Antifungal activity against Syncephalastrum racemosum SZMC 2011 assessed as fungal growth inhibition measured after 24 hrs by microtitre plate reader assay; format: functional
[26] = system: Absidia; assay: Antifungal activity against Absidia assessed as fungal growth inhibition measured upto 48 hrs by spectrophotometric analysis; format: functional
[27] = system: Rhizopus stolonifer; assay: Antifungal activity against Rhizopus stolonifer SZMC 11101 assessed as fungal growth inhibition measured after 24 hrs by microtitre plate reader assay; format: functional
[28] = system: Rhizopus arrhizus; assay: Antifungal activity against Rhizopus oryzae clinical isolate RO-969 assessed as fungal growth inhibition measured after 24 hrs; format: functional
[29] = system: Rhizopus arrhizus; assay: Antifungal activity against Rhizopus oryzae clinical isolate RO-449 assessed as fungal growth inhibition measured after 24 hrs; format: functional
[30] = system: Rhizopus arrhizus; assay: Antifungal activity against Rhizopus oryzae clinical isolate RO-275 assessed as fungal growth inhibition measured after 24 hrs; format: functional
[31] = system: Mycotypha africana; assay: Antifungal activity against Mycotypha africana NRRL 2978 assessed as fungal growth inhibition measured after 24 hrs by microtitre plate reader assay; format: functional
[32] = system: Mucor circinelloides; assay: Antifungal activity against Mucor circinelloides MS 12 assessed as fungal growth inhibition measured after 48 hrs by plate reader assay; format: functional

For CO[C@H]1C[C@@H]2CC[C@@H](C)[C@@](O)(O2)C(=O)C(=O)N2CCCC[C@H]2C(=O)O[C@H]([C@H](C)C[C@@H]2CC[C@@H](O)[C@H](OC)C2)CC(=O)[C@H](C)/C=C(\C)[C@@H](O)[C@@H](OC)C(=O)[C@H](C)C[C@H](C)/C=C/C=C/C=C/1C [SIROLIMUS], the inhibition at 12.5 µg/mL [1] was no more than 80%, the inhibition at 100 µg/mL [2] was no more than 80% and the inhibition at 6.26 µg/mL [3] was no more than 80%.
For CCOC(=O)N1C/C(=C\c2ccc([N+](=O)[O-])cc2)C(=O)[C@@]2(C1)[C@H](c1ccc([N+](=O)[O-])cc1)[C@H]1CCCN1[C@]21C(=O)Nc2ccccc21, the “inhibition zone (IZ)” value [4] was 39.46 mm, the IC50 [5] was 10.6 mg/L (≈ 16.7 µM) and the MIC [5] was 0.49 mg/L (≈ 0.768 µM).
For CCOC(=O)N1C/C(=C\c2ccc(F)cc2)C(=O)[C@@]2(C1)[C@H](c1ccc(F)cc1)CN(C)[C@]21C(=O)Nc2ccccc21, the “inhibition zone (IZ)” value [4] was 39.46 mm.
For CCOC(=O)N1C/C(=C\c2cc(OC)c(OC)c(OC)c2)C(=O)[C@@]2(C1)[C@H](c1cc(OC)c(OC)c(OC)c1)CN(C)[C@]21C(=O)Nc2ccccc21, the “inhibition zone (IZ)” value [4] was 39.46 mm.
For CCOC(=O)N1C/C(=C\c2ccc(Cl)cc2)C(=O)[C@@]2(C1)[C@H](c1ccc(Cl)cc1)CN(C)[C@]21C(=O)Nc2ccccc21, the “inhibition zone (IZ)” value [4] was 39.46 mm, the IC50 [5] was 16.4 mg/L (≈ 27.7 µM) and the MIC [5] was 1.95 mg/L (≈ 3.3 µM).
CC(C)n1c(/C=C/[C@H](O)C[C@H](O)CC(=O)O)c(-c2ccc(F)cc2)c2ccccc21 showed an MIC90 [6] of 3.6 mg/L (≈ 8.75 µM), an MIC [7] of 0.4 mg/L (≈ 0.972 µM) and an MIC [8] of 25 mg/L (≈ 60.8 µM). For the same compound, the MIC90 [9] was 33 mg/L (≈ 80.2 µM), the MIC [10] was 6.25 mg/L (≈ 15.2 µM) and the MIC [11] was 2 mg/L (≈ 4.86 µM). The MIC [12] was 2 mg/L, the MIC [13] was 12.5 mg/L (≈ 30.4 µM) and the MIC [14] was 6.25 mg/L (≈ 15.2 µM). For the same compound, the MIC [15] was 4 mg/L (≈ 9.72 µM), the MIC [16] was 3.12 mg/L (≈ 7.59 µM) and the MIC90 [17] was 3.6 mg/L (≈ 8.75 µM). The MIC [18] was 11 mg/L (≈ 26.7 µM), the MIC [19] was 2 mg/L and the MIC [20] was 6.25 mg/L (≈ 15.2 µM). It also gave an MIC [21] of 3.6 mg/L (≈ 8.75 µM) and an MIC [22] of 0.4 mg/L (≈ 0.972 µM).
In the case of CCOC(=O)N1C/C(=C\c2ccc([N+](=O)[O-])cc2)C(=O)[C@@]2(C1)[C@H](c1ccc([N+](=O)[O-])cc1)CN(C)[C@]21C(=O)Nc2ccccc21, the “inhibition zone (IZ)” value [4] is reported as 39.46 mm.
With CCOC(=O)N1C/C(=C\c2ccc(F)c(F)c2)C(=O)[C@@]2(C1)[C@H](c1ccc(F)c(F)c1)CN(C)[C@]21C(=O)Nc2ccccc21 the “inhibition zone (IZ)” value [4] was 39.46 mm.
CCOC(=O)N1C/C(=C\c2ccc(F)c(F)c2)C(=O)[C@@]2(C1)[C@H](c1ccc(F)c(F)c1)[C@H]1CCCN1[C@]21C(=O)Nc2ccccc21 showed an IC50 [5] of 11.3 mg/L (≈ 18.3 µM) and an MIC [5] of 1.95 mg/L (≈ 3.15 µM).
With C[C@@H]1[C@H](O)[C@@H](C)/C=C/C=C/C=C/C=C/C=C/C=C/C=C/[C@H](O[C@@H]2O[C@H](C)[C@@H](O)[C@H](N)[C@@H]2O)C[C@@H]2O[C@](O)(C[C@@H](O)C[C@@H](O)[C@H](O)CC[C@@H](O)C[C@@H](O)CC(=O)O[C@H]1C)C[C@H](O)[C@H]2C(=O)O [AMPHOTERICIN B] the MIC [7] was 2 mg/L (≈ 2.16 µM), the MIC90 [7] was 1 mg/L (≈ 1.08 µM) and the “inhibition zone (IZ)” value [4] was 22 mm. For the same compound, the MIC [12] was 2 mg/L, the IC50 [5] was 14.3 mg/L (≈ 15.4 µM) and the MIC [5] was 1.95 mg/L (≈ 2.11 µM). The MIC [22] was 1 mg/L (≈ 1.08 µM).
Work on Cc1cc(N2CCN(c3ccc(C(=O)N[C@H]4CCCC[C@@H]4O)cc3)CC2)ccc1OC[C@@H]1CO[C@@](Cn2cncn2)(c2ccc(F)cc2F)C1 yielded an MIC [23] of 2 mg/L (≈ 2.91 µM) and an MIC [24] of 2 mg/L (≈ 2.91 µM).
CCC(C)(C)C(=O)O[C@H]1C[C@@H](C)C=C2C=C[C@H](C)[C@H](CC[C@@H]3C[C@@H](O)CC(=O)O3)[C@H]21 [SIMVASTATIN] showed an MIC [25] of 8 mg/L (≈ 19.1 µM), an MIC90 [17] of 96 mg/L (≈ 229 µM) and an MIC [19] of 64 mg/L. The MIC90 [22] was 11 mg/L (≈ 26.3 µM).
Work on CCC(C)n1ncn(-c2ccc(N3CCN(c4ccc(OCC5COC(Cn6cncn6)(c6ccc(Cl)cc6Cl)O5)cc4)CC3)cc2)c1=O (stereo unspecified) [ITRACONAZOLE] yielded an MIC [26] of 0.03 mg/L (≈ 0.0425 µM) and an MIC [24] greater than 8 mg/L.
Compound CC(C)c1c(C(=O)Nc2ccccc2)c(-c2ccccc2)c(-c2ccc(F)cc2)n1CC[C@@H](O)C[C@@H](O)CC(=O)O [ATORVASTATIN] has an MIC [27] of 64 mg/L (≈ 115 µM), an MIC [28] of 64 mg/L (≈ 115 µM) and an MIC [25] of 32 mg/L (≈ 57.3 µM). It also gave an MIC [29] of 64 mg/L (≈ 115 µM), an MIC [11] of 32 mg/L (≈ 57.3 µM) and an MIC [30] of 64 mg/L (≈ 115 µM). The MIC [31] was 8 mg/L (≈ 14.3 µM), the MIC [19] was 32 mg/L and the MIC [32] was 16 mg/L (≈ 28.6 µM).
